# Data reported in the supplement of paper PMC3493320.
# What was measured:
# Conditions in all cases: 48 h
# [1] = system: NCI-H295R; experiment: IC50 (antiproliferative, ATP content)
# [2] = system: NCI-H295R; experiment: maximal response (efficacy) relative to DMSO (0%) and doxorubicin (-100%); higher = less growth inhibition
# [3] = system: NCI-H295R; experiment: IC50 (antiproliferative, ATP content); remark: listed apart in the source
# In short: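 Adrenocortical carcinoma cells were plated at 1500 per well in 1536-well plates in serum-free DMEM with ITS supplement, left overnight, then given library compounds by pin transfer at 8 final concentrations spanning 0.6 nM to 46 µM and held 48 h at 37 °C, 5% CO2. ATP was measured as CellTiter-Glo luminescence after 20 min at room temperature and scaled between vehicle and positive-control wells. A four-parameter logistic model was fitted to each series. The IC50 was taken from these fits, and compounds without a concentration response were recorded as above the top dose.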
IC50 [1],IC50 [3],Structure (SMILES),maximal response [2]
9.44 µM,,CC1=C(/C=C/C(C)=C/C=C/C(C)=C/C(=O)Nc2ccc(O)cc2)C(C)(C)CCC1,-125%
11.9 µM,,NC(C(C)=C2)=CC=C2/C(C1=CC=C(N)C=C1)=C3/C=CC(C=C3)=N.Cl,-87.4%
23.7 µM,,[Na+].[Na+].[O-]C(=O)c4c(Cl)c(Cl)c(Cl)c(Cl)c4C=2c3cc(I)c([O-])c(I)c3OC=1C=2\C=C(\I)C(=O)C=1I,-153%
6.68 µM,,Oc1c(Br)cc(Br)c2cccnc12,-80.8%
13.3 µM,,Oc1c(Cl)cc(Cl)cc1Sc1cc(Cl)cc(Cl)c1O,-137%
18.8 µM,,O=c1c(-c2ccccc2)c1-c1ccccc1,-142%
21.1 µM,,CC(=O)Nc1ccc(NC(=S)NC(=O)c2ccc(C(C)(C)C)cc2)cc1,-151%
13.3 µM,,CCCCC(=O)OCC(=O)[C@]1(O)Cc2c(O)c3c(c(O)c2[C@@H](O[C@H]2C[C@H](NC(=O)C(F)(F)F)[C@H](O)[C@H](C)O2)C1)C(=O)c1c(OC)cccc1C3=O,-71.8%
21.1 µM,,CCCCCCCCCCCCOCCOCCOCCOCCOCCOCCOCCOCCOCCO,-147%
23.7 µM,,CC1=CC(=O)c2ccccc2C1=O,-158%
26.6 µM,,CC1(CN2CCC(n3c(=O)[nH]c4ccccc43)CC2)OCc2ccccc2-n2cccc21 (stereo not given),-96.9%
8.41 µM,,CCCCCCCC/C=C\CCCCCCCC(=O)NCc1ccc(O)c(OC)c1,-122%
7.5 µM,,CCc1oc2ccccc2c1C(=O)c1cc(I)c(O)c(I)c1,-101%
11.9 µM,,Cn1cnc([N+](=O)[O-])c1Sc1ncnc2nc[nH]c12,-82.1%
1.06 µM,,Nc1nc2nc[nH]c2c(=S)[nH]1,-74.1%
5.31 µM,,N=C(N)NN=C(/C=C/c1ccc([N+](=O)[O-])o1)/C=C/c1ccc([N+](=O)[O-])o1,-124%
11.9 µM,,[Cl-].C/[N+](C)=C1\C=C/C(C=C1)=C(\c2ccc(cc2)N(C)C)c3ccc(cc3)N(C)C,-130%
21.1 µM,,COc1ccc(CN2CCN(C(c3ccc(F)cc3)c3ccc(F)cc3)CC2)c(OC)c1OC,-95.1%
8.41 µM,,COCC(=O)Nc1cc(Sc2ccccc2)ccc1N=C(NC(=O)OC)NC(=O)OC,-64.1%
16.8 µM,,O=C1OCCN1/N=C/c1ccc([N+](=O)[O-])o1,-72.7%
8.41 µM,,COc1cc([C@@H]2c3cc4c(cc3C(O[C@@H]3O[C@@H]5COC(c6cccs6)O[C@H]5[C@H](O)[C@H]3O)C3COC(=O)[C@@H]32)OCO4)cc(OC)c1O (stereo not given in full),-94.9%
21.1 µM,,CN(C)C3=CC=C(C=C3)/C(C2=CC=C(N(C)C)C=C2)=C(C=C1)/C=C/C1=N/C,-167%

IC50 [1],IC50 [3],Structure (SMILES),maximal response [2]
5.31 µM,,Oc1c(Cl)cc(Cl)c2cccnc12,-105%
0.75 µM,,CCc1nc(N)nc(N)c1-c1ccc(Cl)cc1,-81.4%
,> 46 µM,OC(=O)[C@]3(C)C[C@H]4/C5=C/C(=O)[C@H]2[C@@](C)(CC[C@@H]1[C@]2(C)CC[C@H](O)C1(C)C)[C@]5(C)CC[C@@]4(C)CC3,-50.7%
,,CN(C)CCCN1c2ccccc2CCc2ccccc21,-21%
,,CN(CC=CC#CC(C)(C)C)Cc1cccc2ccccc12,-34.4%
,,Cl.O=C(C[C@@H]1NCCC[C@H]1O)Cn1cnc2cc(Br)c(Cl)cc2c1=O,-28.3%
,,CCc1cccc(N(C)C(=N)Nc2cccc3ccccc23)c1.Cl,-29.2%
,,O=C(Nc1ccc(Cl)cc1)Nc1ccc(Cl)c(Cl)c1,-41.7%
,,Oc1ccc(Cl)c2cccnc12,-33.2%
,,Cl.Cl.OCCN1CCN(CCCN2c3ccccc3C=Cc3ccccc32)CC1,-69.8%
,,CC(CN(C)C)CN1c2ccccc2Sc2ccc(C(F)(F)F)cc21.O=C(O)C=CC(=O)O (stereo not given),-30.2%
,> 46 µM,C[C@]12CC[C@@H]3c4ccc(O)cc4CC[C@H]3[C@@H]1CC[C@@H]2OC(=O)CCC1CCCC1,-33.7%
,,S=C1SCN(Cc2ccccc2)CN1Cc1ccccc1,-29.7%
,,O=C(N)[C@@](C2=CC=CC=C2)([C@H]3CN(CCC4=CC(CCO5)=C5C=C4)CC3)C1=CC=CC=C1.Br,-31.7%
,,COC(CNC(=O)c1ccccc1OCC(=O)O)[CH2][Hg][OH] (stereo not given),29%
,,O=C1C(O)=C([C@H]2CC[C@H](c3ccc(Cl)cc3)CC2)C(=O)c2ccccc21,-51%
,,CC1(C)C3=C(C=CC=C3)/C(C2=C1C=CC=C2)=C/CCN(C)C.Cl,-21.5%
,,O=C(N[C@@H](c1ccccc1)[C@@H](O)C(=O)O[C@H]3C[C@@]4(O)[C@@H](OC(=O)c2ccccc2)[C@@H]5[C@]6(OC(C)=O)CO[C@@H]6C[C@H](O)[C@@]5(C)C(=O)[C@H](OC(C)=O)\C(=C3/C)C4(C)C)c7ccccc7,-55.9%
,,Cc1ccc2c(Br)cc(Br)c(O)c2n1,-71.4%
,,CCCCc1ccc2[nH]c(NC(=O)OC)nc2c1,-49.6%
,,COc1cc(CNC(=O)CCCC/C=C/C(C)C)ccc1O,-21.6%

Structure (SMILES),IC50 [1],IC50 [3],maximal response [2]
O[C@H]2C[C@@H](O[C@H](C)[C@H]2O[C@@H]3O[C@H](C)[C@@H](O[C@H]4C[C@H](O)[C@H](OC)[C@@H](C)O4)[C@@H](O)C3)O[C@H]1CC[C@@]5(C)[C@@](CC[C@]6([H])[C@@]([H])5C[C@@H](O)[C@@]7(C)[C@@](O)6CC[C@@H]7[C@@](CO8)=CC8=O)([H])C1,0.237 µM,,-111%
O=C([C@](C(C=C4OC)=C(C=C4OC)OC3)([H])[C@]3([H])O2)C(C=C5)=C2C1=C5O[C@@H]([C@@](C)=C)C1,0.75 µM,,-69.2%
CC[C@@H](C(=O)[C@@H](C)[C@@H](O)[C@H](C)[C@@H]1O[C@@H]([C@@H](CC)C(=O)[O-])CC[C@@H]1C)[C@H]1O[C@]2(C=C[C@@H](O)[C@]3(CC[C@@](C)([C@H]4CC[C@](O)(CC)[C@H](C)O4)O3)O2)[C@H](C)C[C@@H]1C.[Na+],13.3 µM,,-80.1%
C[C@@]12C(=O)OC(=O)[C@]1(C)C1CCC2O1,1.43 µM,,-114%
Nc1ccc2cc3ccc(N)cc3nc2c1.Nc1ccc2cc3ccc(N)cc3nc2c1.O=S(=O)(O)O,18.8 µM,,-138%
Clc1ccc(COC(Cn2ccnc2)c2ccc(Cl)cc2Cl)cc1.O=[N+]([O-])O (stereo not given),26.6 µM,,-149%
C[C@H]1CC[C@@H]2[C@@H](C)[C@H]3[C@H](C[C@H]4[C@@H]5CC=C6CC(O[C@@H]7O[C@H](CO)[C@H](O)[C@H](O[C@@H]8O[C@H](CO)[C@@H](O)[C@H](O)[C@H]8O)[C@H]7O[C@H]7O[C@@H](C)[C@H](O)[C@@H](O)[C@H]7O)CC[C@]6(C)[C@H]5CC[C@]34C)N2C1 (stereo not given in full),18.8 µM,,-135%
OB(O)[O][Hg][c]1ccccc1,3.76 µM,,-130%
